Measured values from publication PMC6409085, “Three odorant-binding proteins are involved in the behavioral response of Sogatella furcifera to rice plant volatiles” (PeerJ, 2019).
Values joined by “and” are separate entries in the source; they are usually repeats but may differ in a detail not shown here. Equal values may be shown once.

Assays:
SfurOBP1 = SfurOBP1 (Sogatella furcifera, UniProt V5T8N5); assay: biochemical; assay type: binding; conditions: for Fluorescence competitive binding assay, fluorescence intensity: OBP1, three replicate columns
In short: (§1)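 First, 2.0 µM protein in 50 mM Tris-HCl (pH 7.4) was titrated with 1-NPN to obtain K1-NPN. Then odorants (2–20 µM final) competed against 2.0 µM 1-NPN, with fluorescence (ex 337 nm) recorded after 2 min. Ki was computed from IC50 via Ki = IC50/(1 + [1-NPN]/K1-NPN).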

SfurOBP11 = SfurOBP11 (Sogatella furcifera, UniProt V5T6E3); assay: biochemical; assay type: binding
In short: as §1

SfurOBP2 = SfurOBP2 (Sogatella furcifera, UniProt V5T759); assay: biochemical; assay type: binding
In short: as §1

SfurOBP3 = SfurOBP3 (Sogatella furcifera, UniProt V5T818); assay: biochemical; assay type: binding; conditions: for Fluorescence competitive binding assay, fluorescence intensity: OBP3, three replicate columns
In short: as §1

S. furcifera adults = assay: Y-tube olfactometer behavioral trials; assay type: in vivo, Sogatella furcifera; conditions: odorant 50 µL/L vs hexane; adults
In short: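 Single S. furcifera adults (2 days post-emergence, starved 0.5 h) chose between odorant (100 µL of 50 µL/L on filter paper) and hexane control in a glass Y-tube, charcoal-filtered humidified air 300 mL/min per arm, 25 ± 1 °C, 50% RH. Choice scored if insect passed half an arm and stayed >1 min within 10 min; 45 insects per compound, chi-squared test.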

Sequence of SfurOBP2 (V5T759 entry or part of it): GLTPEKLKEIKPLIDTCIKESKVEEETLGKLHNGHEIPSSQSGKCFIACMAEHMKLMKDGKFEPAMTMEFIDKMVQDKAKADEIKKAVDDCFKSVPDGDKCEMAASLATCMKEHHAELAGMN
Sequence of SfurOBP3 (V5T818 entry or part of it): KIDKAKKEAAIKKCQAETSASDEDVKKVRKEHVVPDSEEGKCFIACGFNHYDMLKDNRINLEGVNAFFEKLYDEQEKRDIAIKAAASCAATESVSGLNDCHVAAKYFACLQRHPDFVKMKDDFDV
Sequence of SfurOBP11 (V5T6E3 entry or part of it): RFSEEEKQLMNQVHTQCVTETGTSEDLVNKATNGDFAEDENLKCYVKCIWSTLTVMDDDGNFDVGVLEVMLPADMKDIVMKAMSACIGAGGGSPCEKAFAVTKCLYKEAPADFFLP
Sequence of SfurOBP1 (V5T8N5 entry or part of it): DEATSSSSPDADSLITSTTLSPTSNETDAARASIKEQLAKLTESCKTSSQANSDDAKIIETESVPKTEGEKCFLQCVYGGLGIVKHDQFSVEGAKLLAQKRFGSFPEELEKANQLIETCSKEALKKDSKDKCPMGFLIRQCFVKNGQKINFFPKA

With CCC/C=C/CO [(E)-2-hexenol] the IC50 (SfurOBP1) was > 20 µM, the “Fluorescence competitive binding assay, fluorescence intensity” value (SfurOBP1; ligand concentration 2 (μM)) was 5821 and 6205 and 6589 and the “Fluorescence competitive binding assay, fluorescence intensity” value (SfurOBP1; ligand concentration 4 (μM)) was 7444 and 7124 and 7270. For the same compound, the “Fluorescence competitive binding assay, fluorescence intensity” value (SfurOBP1; ligand concentration 6 (μM)) was 8585 and 7896 and 9273, the “Fluorescence competitive binding assay, fluorescence intensity” value (SfurOBP1; ligand concentration 8 (μM)) was 8091 and 7978 and 7865 and the “Fluorescence competitive binding assay, fluorescence intensity” value (SfurOBP1; ligand concentration 10 (μM)) was 8122 and 7477 and 6720. For the same compound, the “Fluorescence competitive binding assay, fluorescence intensity” value (SfurOBP1; ligand concentration 12 (μM)) was 5971 and 6877 and 6423, the “Fluorescence competitive binding assay, fluorescence intensity” value (SfurOBP1; ligand concentration 14 (μM)) was 6112 and 6019 and 6107 and the “Fluorescence competitive binding assay, fluorescence intensity” value (SfurOBP1; ligand concentration 16 (μM)) was 6252 and 5805 and 6056. For the same compound, the “Fluorescence competitive binding assay, fluorescence intensity” value (SfurOBP1; ligand concentration 18 (μM)) was 8503 and 8229 and 10760, the “Fluorescence competitive binding assay, fluorescence intensity” value (SfurOBP1; ligand concentration 20 (μM)) was 7495 and 8100 and 7787 and the IC50 (SfurOBP11) was > 20 µM. The “Fluorescence intensity, fluorescence competitive binding assay, OBP11” value (shortened to “Fluorescence intensity … OBP11”) (SfurOBP11; ligand concentration 2, replicate 1) was 34795, the “Fluorescence intensity … OBP11” value (SfurOBP11; ligand concentration 2, replicate 2) was 32362 and the “Fluorescence intensity … OBP11” value (SfurOBP11; ligand concentration 2, replicate 3) was 33570. The “Fluorescence intensity … OBP11” value (SfurOBP11; ligand concentration 4, replicate 1) was 31605, the “Fluorescence intensity … OBP11” value (SfurOBP11; ligand concentration 4, replicate 2) was 31826 and the “Fluorescence intensity … OBP11” value (SfurOBP11; ligand concentration 4, replicate 3) was 31807. For the same compound, the “Fluorescence intensity … OBP11” value (SfurOBP11; ligand concentration 6, replicate 1) was 29600, the “Fluorescence intensity … OBP11” value (SfurOBP11; ligand concentration 6, replicate 2) was 28910 and the “Fluorescence intensity … OBP11” value (SfurOBP11; ligand concentration 6, replicate 3) was 29255. The “Fluorescence intensity … OBP11” value (SfurOBP11; ligand concentration 8, replicate 1) was 27040, the “Fluorescence intensity … OBP11” value (SfurOBP11; ligand concentration 8, replicate 2) was 29546 and the “Fluorescence intensity … OBP11” value (SfurOBP11; ligand concentration 8, replicate 3) was 25961. For the same compound, the “Fluorescence intensity … OBP11” value (SfurOBP11; ligand concentration 10, replicate 1) was 25687, the “Fluorescence intensity … OBP11” value (SfurOBP11; ligand concentration 10, replicate 2) was 25600 and the “Fluorescence intensity … OBP11” value (SfurOBP11; ligand concentration 10, replicate 3) was 25774. For the same compound, the “Fluorescence intensity … OBP11” value (SfurOBP11; ligand concentration 12, replicate 1) was 25617, the “Fluorescence intensity … OBP11” value (SfurOBP11; ligand concentration 12, replicate 2) was 23726 and the “Fluorescence intensity … OBP11” value (SfurOBP11; ligand concentration 12, replicate 3) was 24242. For the same compound, the “Fluorescence intensity … OBP11” value (SfurOBP11; ligand concentration 14, replicate 1) was 22896, the “Fluorescence intensity … OBP11” value (SfurOBP11; ligand concentration 14, replicate 2) was 21710 and the “Fluorescence intensity … OBP11” value (SfurOBP11; ligand concentration 14, replicate 3) was 22816. The “Fluorescence intensity … OBP11” value (SfurOBP11; ligand concentration 16, replicate 1) was 19721, the “Fluorescence intensity … OBP11” value (SfurOBP11; ligand concentration 16, replicate 2) was 20050 and the “Fluorescence intensity … OBP11” value (SfurOBP11; ligand concentration 16, replicate 3) was 20211. For the same compound, the “Fluorescence intensity … OBP11” value (SfurOBP11; ligand concentration 18, replicate 1) was 19470, the “Fluorescence intensity … OBP11” value (SfurOBP11; ligand concentration 18, replicate 2) was 19537 and the “Fluorescence intensity … OBP11” value (SfurOBP11; ligand concentration 18, replicate 3) was 20671. The “Fluorescence intensity … OBP11” value (SfurOBP11; ligand concentration 20, replicate 1) was 20038, the “Fluorescence intensity … OBP11” value (SfurOBP11; ligand concentration 20, replicate 2) was 19843 and the “Fluorescence intensity … OBP11” value (SfurOBP11; ligand concentration 20, replicate 3) was 19956. For the same compound, the IC50 (SfurOBP2) was > 20 µM, the “Fluorescence competitive binding assay, OBP2 (raw fluorescence reading)” value (SfurOBP2; ligand concentration 2 (unit not given), replicate column 1 of 3) was 18290 and the “Fluorescence competitive binding assay, OBP2 (raw fluorescence reading)” value (SfurOBP2; ligand concentration 2 (unit not given), replicate column 2 of 3) was 18447. For the same compound, the “Fluorescence competitive binding assay, OBP2 (raw fluorescence reading)” value (SfurOBP2; ligand concentration 2 (unit not given), replicate column 3 of 3) was 18531, the “Fluorescence competitive binding assay, OBP2 (raw fluorescence reading)” value (SfurOBP2; ligand concentration 4 (unit not given), replicate column 1 of 3) was 17418 and the “Fluorescence competitive binding assay, OBP2 (raw fluorescence reading)” value (SfurOBP2; ligand concentration 4 (unit not given), replicate column 2 of 3) was 17308. For the same compound, the “Fluorescence competitive binding assay, OBP2 (raw fluorescence reading)” value (SfurOBP2; ligand concentration 4 (unit not given), replicate column 3 of 3) was 17228, the “Fluorescence competitive binding assay, OBP2 (raw fluorescence reading)” value (SfurOBP2; ligand concentration 6 (unit not given), replicate column 1 of 3) was 16794 and the “Fluorescence competitive binding assay, OBP2 (raw fluorescence reading)” value (SfurOBP2; ligand concentration 6 (unit not given), replicate column 2 of 3) was 16314. For the same compound, the “Fluorescence competitive binding assay, OBP2 (raw fluorescence reading)” value (SfurOBP2; ligand concentration 6 (unit not given), replicate column 3 of 3) was 16504, the “Fluorescence competitive binding assay, OBP2 (raw fluorescence reading)” value (SfurOBP2; ligand concentration 8 (unit not given), replicate column 1 of 3) was 15464 and the “Fluorescence competitive binding assay, OBP2 (raw fluorescence reading)” value (SfurOBP2; ligand concentration 8 (unit not given), replicate column 2 of 3) was 15780. For the same compound, the “Fluorescence competitive binding assay, OBP2 (raw fluorescence reading)” value (SfurOBP2; ligand concentration 8 (unit not given), replicate column 3 of 3) was 16125, the “Fluorescence competitive binding assay, OBP2 (raw fluorescence reading)” value (SfurOBP2; ligand concentration 10 (unit not given), replicate column 1 of 3) was 15191 and the “Fluorescence competitive binding assay, OBP2 (raw fluorescence reading)” value (SfurOBP2; ligand concentration 10 (unit not given), replicate column 2 of 3) was 14875. For the same compound, the “Fluorescence competitive binding assay, OBP2 (raw fluorescence reading)” value (SfurOBP2; ligand concentration 10 (unit not given), replicate column 3 of 3) was 15159, the “Fluorescence competitive binding assay, OBP2 (raw fluorescence reading)” value (SfurOBP2; ligand concentration 12 (unit not given), replicate column 1 of 3) was 14300 and the “Fluorescence competitive binding assay, OBP2 (raw fluorescence reading)” value (SfurOBP2; ligand concentration 12 (unit not given), replicate column 2 of 3) was 14543. The “Fluorescence competitive binding assay, OBP2 (raw fluorescence reading)” value (SfurOBP2; ligand concentration 12 (unit not given), replicate column 3 of 3) was 14192, the “Fluorescence competitive binding assay, OBP2 (raw fluorescence reading)” value (SfurOBP2; ligand concentration 14 (unit not given), replicate column 1 of 3) was 13523 and the “Fluorescence competitive binding assay, OBP2 (raw fluorescence reading)” value (SfurOBP2; ligand concentration 14 (unit not given), replicate column 2 of 3) was 13764. For the same compound, the “Fluorescence competitive binding assay, OBP2 (raw fluorescence reading)” value (SfurOBP2; ligand concentration 14 (unit not given), replicate column 3 of 3) was 13447, the “Fluorescence competitive binding assay, OBP2 (raw fluorescence reading)” value (SfurOBP2; ligand concentration 16 (unit not given), replicate column 1 of 3) was 12677 and the “Fluorescence competitive binding assay, OBP2 (raw fluorescence reading)” value (SfurOBP2; ligand concentration 16 (unit not given), replicate column 2 of 3) was 12355. For the same compound, the “Fluorescence competitive binding assay, OBP2 (raw fluorescence reading)” value (SfurOBP2; ligand concentration 16 (unit not given), replicate column 3 of 3) was 12095, the “Fluorescence competitive binding assay, OBP2 (raw fluorescence reading)” value (SfurOBP2; ligand concentration 18 (unit not given), replicate column 1 of 3) was 11796 and the “Fluorescence competitive binding assay, OBP2 (raw fluorescence reading)” value (SfurOBP2; ligand concentration 18 (unit not given), replicate column 2 of 3) was 11817. The “Fluorescence competitive binding assay, OBP2 (raw fluorescence reading)” value (SfurOBP2; ligand concentration 18 (unit not given), replicate column 3 of 3) was 11503, the “Fluorescence competitive binding assay, OBP2 (raw fluorescence reading)” value (SfurOBP2; ligand concentration 20 (unit not given), replicate column 1 of 3) was 11621 and the “Fluorescence competitive binding assay, OBP2 (raw fluorescence reading)” value (SfurOBP2; ligand concentration 20 (unit not given), replicate column 2 of 3) was 11220. The “Fluorescence competitive binding assay, OBP2 (raw fluorescence reading)” value (SfurOBP2; ligand concentration 20 (unit not given), replicate column 3 of 3) was 11057, the IC50 (SfurOBP3) was > 20 µM and the “Fluorescence competitive binding assay, fluorescence intensity” value (SfurOBP3; ligand concentration 2) was 55419 and 52631 and 56435. For the same compound, the “Fluorescence competitive binding assay, fluorescence intensity” value (SfurOBP3; ligand concentration 4) was 52848 and 53720 and 53070, the “Fluorescence competitive binding assay, fluorescence intensity” value (SfurOBP3; ligand concentration 6) was 56485 and 54348 and 51437 and the “Fluorescence competitive binding assay, fluorescence intensity” value (SfurOBP3; ligand concentration 8) was 53820 and 44741 and 53024. For the same compound, the “Fluorescence competitive binding assay, fluorescence intensity” value (SfurOBP3; ligand concentration 10) was 50999 and 49511 and 49866, the “Fluorescence competitive binding assay, fluorescence intensity” value (SfurOBP3; ligand concentration 12) was 51314 and 45497 and 46649 and the “Fluorescence competitive binding assay, fluorescence intensity” value (SfurOBP3; ligand concentration 14) was 46992 and 46379 and 46282. For the same compound, the “Fluorescence competitive binding assay, fluorescence intensity” value (SfurOBP3; ligand concentration 16) was 39521 and 39562 and 39433, the “Fluorescence competitive binding assay, fluorescence intensity” value (SfurOBP3; ligand concentration 18) was 45227 and 50180 and 45511 and the “Fluorescence competitive binding assay, fluorescence intensity” value (SfurOBP3; ligand concentration 20) was 47692 and 45313 and 40014. The “number of insects choosing hexane arm” value (S. furcifera adults) was 9, the “number of insects choosing volatilies arm” value (S. furcifera adults) was 8 and the “number of insects failed (no choice)” value (S. furcifera adults) was 24.
